Reference: the supplement of paper PMC9386025

Assays:
Assay in all cases: drug sensitivity score (DSS) (DSS (dimensionless)); higher = more sensitive (stronger drug response)
[1] = test system: FIMM-PDC4 (patient-derived ovarian cancer cells); settings: genetic perturbation: none (patient-derived cell culture)
Method in brief: (§1)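 Ovarian cancer cell lines with shRNA induced by 100 ng/ml doxycycline for at least three days, along with patient-derived cultures, were seeded at 1 000 – 1 500 cells per well onto drugs pre-plated in 384-well plates at five concentrations over a 10,000-fold range and incubated for three days at 37 °C and 5.0 % CO2. CellTiter-Glo luminescence measured on a PHERAstar FS served as the viability readout, and each drug's dose-response curve was summarised as a drug sensitivity score following an earlier published method.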

[2] = test system: FIMM-PDC7 (patient-derived ovarian cancer cells); settings: genetic perturbation: none (patient-derived cell culture)
Method in brief: as §1

[3] = test system: FIMM-PDC6 (patient-derived ovarian cancer cells); settings: genetic perturbation: none (patient-derived cell culture)
Method in brief: as §1

[4] = test system: Kuramochi
Method in brief: as §1

[5] = test system: OVSAHO
Method in brief: as §1

[6] = test system: FIMM-PDC5 (patient-derived ovarian cancer cells); settings: genetic perturbation: none (patient-derived cell culture)
Method in brief: as §1

[7] = test system: FIMM-PDC2 (patient-derived ovarian cancer cells); settings: genetic perturbation: none (patient-derived cell culture)
Method in brief: as §1

[8] = test system: JHOS2
Method in brief: as §1

[9] = test system: FIMM-PDC3 (patient-derived ovarian cancer cells); settings: genetic perturbation: none (patient-derived cell culture)
Method in brief: as §1

[10] = test system: FIMM-PDC1 (patient-derived ovarian cancer cells); settings: genetic perturbation: none (patient-derived cell culture)
Method in brief: as §1

[11] = genetic perturbation: DOX-induced PTK7 shRNA knockdown
[12] = genetic perturbation: DOX-induced control shRNA

Compound | drug sensitivity score [1] | drug sensitivity score [2] | drug sensitivity score [3] | drug sensitivity score [4, 11] | drug sensitivity score [4, 12] | drug sensitivity score [5, 11] | drug sensitivity score [5, 12] | drug sensitivity score [6] | drug sensitivity score [7] | drug sensitivity score [8, 11] | drug sensitivity score [8, 12] | drug sensitivity score [9] | drug sensitivity score [10]
CO[C@H]1CC[C@H](N2C(=O)CNc3ncc(-c4ccc(C(C)(C)O)nc4)nc32)CC1 [CC-223] | 5.9 | 9.5 | 5.3 | 5.1 | 4.6 | 6.6 | 4.9 | 10.3 | 4.7 | 3.3 | 3.3 | 3.5 | 3.2
C=CCn1c(=O)c2cnc(Nc3ccc(N4CCN(C)CC4)cc3)nc2n1-c1cccc(C(C)(C)O)n1 [AZD1775] | 10.4 | 8.8 | 4 | 10.3 | 9.9 | 16.3 | 9.6 | 19 | 12.9 | 8.6 | 8.3 | 17 | 21.6
CC1(C)OCCn2c1nc1c(N3CCOCC3)nc(-c3cnc(N)nc3)nc12 [GDC-0084] | 13.1 | 14.2 | 13.3 | 10.2 | 6.3 | 10.2 | 9.7 | 17 | 10.3 | 7 | 8.5 | 7.9 | 7.65
